Numbers after ± are expanded uncertainties.
Assay: xn = mol fraction of the nth substance listed
Details: 303.15 K, 100 kPa, Liquid; for viscosity: Capillary tube (Ostwald / Ubbelohde) method; for excess molar volume: Direct dilatometry; for speed of sound: Frequency=3 MHz, Sing-around technique in a fixed-path interferometer; for mass density: Pycnometric method

Cc1ccccc1Cl [2-chlorotoluene] + CC(=O)N(C)C
Details | excess molar volume [m3/mol] | mass density [kg/m3] | speed of sound [m/s] | viscosity [mPa·s]
x2 = 0.1 | – | 1059.98 ± 11 | 1305 ± 3 | –
x2 = 0.106 | -2e-08 ± 6e-09 | – | – | 0.884 ± 0.013
x2 = 0.1231 | -2.2e-08 ± 6e-09 | – | – | 0.883 ± 0.013
x2 = 0.1527 | – | 1053.19 ± 11 | 1316 ± 3 | –
x2 = 0.1854 | -3e-08 ± 6e-09 | – | – | 0.882 ± 0.013
x2 = 0.1862 | – | 1048.87 ± 11 | 1322 ± 3 | –
x2 = 0.2241 | -3.5e-08 ± 6e-09 | 1043.95 ± 10 | 1330 ± 3 | 0.881 ± 0.013
x2 = 0.2585 | – | 1039.48 ± 10 | 1337 ± 3 | –
x2 = 0.2672 | -3.9e-08 ± 6e-09 | – | – | 0.88 ± 0.013
x2 = 0.3057 | -4.3e-08 ± 6e-09 | – | – | 0.879 ± 0.013
x2 = 0.3232 | – | 1031.07 ± 10 | 1350 ± 3 | –
x2 = 0.3545 | – | 1026.99 ± 10 | 1356 ± 3 | –
x2 = 0.3762 | -4.9e-08 ± 6e-09 | – | – | 0.878 ± 0.013
x2 = 0.4095 | -5.1e-08 ± 6e-09 | – | – | 0.877 ± 0.013
x2 = 0.4673 | – | 1012.24 ± 10 | 1378 ± 3 | –
x2 = 0.503 | – | 1007.54 ± 10 | 1384 ± 3 | –
x2 = 0.5255 | -5.5e-08 ± 6e-09 | – | – | 0.876 ± 0.013
x2 = 0.5483 | – | 1001.55 ± 10 | 1391 ± 3 | –
x2 = 0.561 | -5.5e-08 ± 6e-09 | – | – | 0.875 ± 0.013
x2 = 0.6052 | -5.2e-08 ± 6e-09 | – | – | 0.874 ± 0.013
x2 = 0.6722 | – | 985.14 ± 9.9 | 1407 ± 3 | –
x2 = 0.7214 | -4.2e-08 ± 6e-09 | – | – | 0.873 ± 0.013
x2 = 0.7275 | – | 977.79 ± 9.8 | 1415 ± 3 | –
x2 = 0.7625 | – | 973.13 ± 9.8 | 1416 ± 3 | –
x2 = 0.7712 | -3.6e-08 ± 6e-09 | – | – | 0.872 ± 0.013
x2 = 0.8021 | -3.2e-08 ± 6e-09 | – | – | 0.871 ± 0.013
x2 = 0.8525 | – | 961.13 ± 9.6 | 1428 ± 3 | –
x2 = 0.8795 | -2.3e-08 ± 6e-09 | – | – | 0.869 ± 0.013

Cc1ccc(Cl)cc1 [4-chlorotoluene] + CC(=O)N(C)C
Details | excess molar volume [m3/mol] | mass density [kg/m3] | speed of sound [m/s] | viscosity [mPa·s]
x2 = 0.0699 | – | 1056.58 ± 11 | 1286 ± 3 | –
x2 = 0.0876 | -6e-09 ± 6e-09 | – | – | 0.897 ± 0.013
x2 = 0.0969 | – | 1053.3 ± 11 | 1294 ± 3 | –
x2 = 0.1205 | -1e-08 ± 6e-09 | – | – | 0.895 ± 0.013
x2 = 0.1267 | – | 1049.63 ± 11 | 1303 ± 3 | –
x2 = 0.1564 | -1.2e-08 ± 6e-09 | – | – | 0.893 ± 0.013
x2 = 0.1767 | – | 1043.58 ± 10 | 1317 ± 3 | –
x2 = 0.2099 | – | 1039.44 ± 10 | 1326 ± 3 | –
x2 = 0.2145 | -1.6e-08 ± 6e-09 | – | – | 0.89 ± 0.013
x2 = 0.2522 | – | 1034.25 ± 10 | 1339 ± 3 | –
x2 = 0.2534 | -1.9e-08 ± 6e-09 | – | – | 0.888 ± 0.013
x2 = 0.3011 | -2.2e-08 ± 6e-09 | – | – | 0.886 ± 0.013
x2 = 0.3187 | – | 1026.08 ± 10 | 1359 ± 3 | –
x2 = 0.374 | -2.6e-08 ± 6e-09 | – | – | 0.884 ± 0.013
x2 = 0.4342 | – | 1011.83 ± 10 | 1385 ± 3 | –
x2 = 0.4664 | – | 1007.85 ± 10 | 1392 ± 3 | –
x2 = 0.4933 | – | 1004.51 ± 10 | 1397 ± 3 | –
x2 = 0.495 | -2.9e-08 ± 6e-09 | – | – | 0.882 ± 0.013
x2 = 0.5275 | -2.9e-08 ± 6e-09 | – | – | 0.88 ± 0.013
x2 = 0.5443 | – | 998.18 ± 10 | 1403 ± 3 | –
x2 = 0.5543 | -2.8e-08 ± 6e-09 | – | – | 0.879 ± 0.013
x2 = 0.6041 | -2.7e-08 ± 6e-09 | – | – | 0.878 ± 0.013
x2 = 0.6513 | – | 984.88 ± 9.9 | 1415 ± 3 | –
x2 = 0.7047 | -2.2e-08 ± 6e-09 | – | – | 0.876 ± 0.013
x2 = 0.7148 | – | 976.97 ± 9.8 | 1420 ± 3 | –
x2 = 0.762 | -1.8e-08 ± 6e-09 | – | – | 0.874 ± 0.013
x2 = 0.7858 | – | 968.12 ± 9.7 | 1424 ± 3 | –
x2 = 0.8241 | -1.4e-08 ± 6e-09 | – | – | 0.872 ± 0.013
x2 = 0.8524 | – | 959.81 ± 9.6 | 1425 ± 3 | –
x2 = 0.8806 | -1e-08 ± 6e-09 | – | – | 0.87 ± 0.013

From the NIST ThermoML archive (doi:10.1016/j.fluid.2015.03.048)
